The star is where a group is joined. X1 = CC(C)CCC[C@@H](C)[C@H]1CC[C@H]2[C@@H]3CC=C4C[C@@H](OC(=O)CCOCCOCCOCCOCCOCCOCCOCCOCCOCCOCCOCCOCCOCCOCCOCCOCCOCCOCCOCCOCCOCCOCCOCCOCCNC(=O)C*)CC[C@]4(C)[C@H]3CC[C@]12C; X2 = CC(C)CCC[C@@H](C)[C@H]1CC[C@H]2[C@@H]3CC=C4C[C@@H](OC(=O)CCOCCOCCOCCOCCNC(=O)C*)CC[C@]4(C)[C@H]3CC[C@]12C; X3 = CC(C)CCC[C@@H](C)[C@H]1CC[C@H]2[C@@H]3CC=C4C[C@@H](OC(=O)C*)CC[C@]4(C)[C@H]3CC[C@]12C
What was measured:
[1] = test system: HPIV3; settings: 24 h
[2] = test system: Vero cells; settings: for Cytotoxicity in monolayer culture CC50: 24 h
[3] = test system: HPIV3; type: cell-based
[4] = test system: NiV G/F mediated fusion; type: cell-based
[5] = biological target: uncleaved HPIV3 F (K108G) (Human parainfluenza 3 virus, UniProt P06828, K108G); type: cell-based
[6] = type: physicochemical; settings: pH 7.4
[7] = type: binding; settings: read-out: Kd, dissociation constant for POPC monolayer
[8] = biological target: RBCs; type: binding, human; settings: pH 7.4; read-out: Apparent Kd towards RBCs
[9] = test system: HPIV3; type: in vivo, cotton rats; settings: n = 4
[10] = test system: NiV; design: species or system Syrian golden hamsters (Mesocricetus auratus); settings: hamster, in vivo, ip, 2 mg/kg
[11] = test system: trypsin
[12] = hamster, in vivo, ip, 2 mg/kg
[13] = in vivo; settings: female, Syrian golden, hamster, ip, 2 mg/kg

uncleaved HPIV3 F (K108G), sequence (P06828 19-539 K108G): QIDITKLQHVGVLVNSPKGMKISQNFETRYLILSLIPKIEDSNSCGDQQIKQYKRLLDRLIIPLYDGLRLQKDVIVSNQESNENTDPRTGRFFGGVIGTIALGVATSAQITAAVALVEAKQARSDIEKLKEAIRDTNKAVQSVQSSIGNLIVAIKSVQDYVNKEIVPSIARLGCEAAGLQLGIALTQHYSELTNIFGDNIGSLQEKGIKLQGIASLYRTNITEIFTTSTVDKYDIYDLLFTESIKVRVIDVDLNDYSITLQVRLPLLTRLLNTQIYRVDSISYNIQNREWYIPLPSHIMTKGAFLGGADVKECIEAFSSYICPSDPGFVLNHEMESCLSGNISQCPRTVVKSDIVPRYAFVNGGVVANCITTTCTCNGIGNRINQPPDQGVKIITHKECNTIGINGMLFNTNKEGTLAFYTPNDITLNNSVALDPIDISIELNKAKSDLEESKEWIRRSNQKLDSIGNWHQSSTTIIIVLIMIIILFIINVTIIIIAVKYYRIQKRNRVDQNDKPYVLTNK

| Molecule | IC50 [1] | IC90 [1] | Cytotoxicity in monolayer culture CC50 [2] | Inhibition of HPIV3 infection in HAE at 1 μM [3] | Inhibition of HPIV3 infection in HAE at 10 μM [3] | RBCs irreversibly bound (peptide bridging) [5] | Blue-shift of ANS emission on titration with peptide [6] | Kd [7] | Kd [8] | further results |
| --- | --- | --- | --- | --- | --- | --- | --- | --- | --- | --- |
| CC[C@H](C)[C@H](NC(=O)[C@H](C)NC(=O)[C@H](CC(N)=O)NC(=O)CNC(=O)[C@H](CC(C)C)NC(=O)[C@H](CC(N)=O)NC(=O)[C@@H](NC(=O)CNC(=O)[C@@H](NC(=O)[C@H](CC(=O)O)NC(=O)[C@H](CC(C)C)NC(=O)[C@H](CCCNC(=N)N)NC(=O)[C@H](CCC(=O)O)NC(=O)[C@H](CC(C)C)NC(=O)[C@H](CO)NC(=O)[C@@H](NC(=O)[C@@H]1CCCN1C(=O)[C@@H]1CCCN1C(C)=O)[C@@H](C)CC)C(C)C)[C@@H](C)O)C(=O)N[C@@H](C)C(=O)N[C@@H](CCCCN)C(=O)N[C@@H](CC(C)C)C(=O)N[C@@H](CCC(=O)O)C(=O)N[C@@H](CC(=O)O)C(=O)N[C@@H](C)C(=O)N[C@@H](CCCCN)C(=O)N[C@@H](CCC(=O)O)C(=O)N[C@@H](CC(C)C)C(=O)N[C@@H](CC(C)C)C(=O)N[C@@H](CCC(=O)O)C(=O)N[C@@H](CO)C(=O)N[C@@H](CO)C(=O)N[C@@H](CC(=O)O)C(=O)N[C@@H](CCC(N)=O)C(=O)N[C@H](C(=O)N[C@@H](CC(C)C)C(=O)N[C@@H](CCCNC(=N)N)C(=O)NCC(=O)N[C@@H](CO)C(=O)NCC(=O)N[C@@H](CO)C(=O)NCC(=O)N[C@@H](CSCC(=O)NCCOCCOCCOCCOCCOCCOCCOCCOCCOCCOCCOCCOCCOCCOCCOCCOCCOCCOCCOCCOCCOCCOCCOCCOCCC(=O)O[C@H]1CC[C@@]2(C)C(=CC[C@H]3[C@@H]4CC[C@H]([C@H](C)CCCC(C)C)[C@@]4(C)CC[C@@H]32)C1)C(N)=O)[C@@H](C)CC [HRCMV PEG 24 Chol, reference compound] | > 2000 nM | > 2000 nM | 2,000 nM | – | – | – | – | – | – | – |
| Ac-C(X2)GSGSGVALDPIDISIVLNKAKSDLEESKEWIRRSNGKLDSI-NH2 [Chol-PEG4-VG] | – | 0.1 ± 0.0001 nM | >10,000 nM | only partial inhibition | no virus was produced at any time after infection | – | – | – | – | – |
| Ac-C(X3)GSGSGVALDPIDISIVLNKAKSDLEESKEWIRRSNGKLDSI-NH2 [Chol-VG] | 0.06 ± 0.035 nM | 1.7 ± 0.42 nM | 9,000 nM | – | – | – | – | – | – | IC50 against NiV fusion [4]: too little effect to determine an IC50; RBCs free (released) [5]: 80%; RBCs reversibly bound (HN-receptor engagement only) [5]: 20% |
| Ac-VALDPIDISIVLNKAKSDLEESKEWIRRSNGKLDSIGSGSGC(X1)-NH2 [VG-PEG24-Chol] | 0.007 ± 0.007 nM | 0.1 ± 0.0003 nM | 1,300 nM | complete inhibition of infection | no virus was produced at any time after infection | looks similar to VG-Chol | 58 nm | 77.6 ± 21.7 nM | 330 nM | Viral load in cotton rat lungs [9]: significantly decreased the viral load; Survival of hamsters given lethal NiV [10]: significantly improved the survival; Protease degradation, temperature not given [11]: increased degradation significantly; Concentration at which toxicity on cells appears [2]: 1 µM; Peptide in brain (immuno-histofluorescence) [12]: present in brain parenchyma; Peptide in urine [12]: No peptide was detected in the urine; Cmax [13]: 0.12 µM |
| Ac-VALDPIDISIVLNKAKSDLEESKEWIRRSNGKLDSIGSGSGC(X2)-NH2 [VG-PEG4-Chol] | 0.03 ± 0.04 nM | 0.7 ± 0.007 nM | 4,500 nM | only partial inhibition | – | more than 50% | 63 nm | 67.9 ± 14.2 nM | 440 nM | Decrease of HPIV3 viral titer in HAE at day 2 after infection [3]: approximately two logs; Decrease of HPIV3 viral titer in HAE at day 5 [3]: approximately one log |
| Ac-VALDPIDISIVLNKAKSDLEESKEWIRRSNGKLDSIGSGSGC(X3)-NH2 [VG-Chol] | 0.015 nM | 0.7 ± 0.26 nM | 10,000 nM | – | – | – | 67 nm | 62.3 ± 20.3 nM | 540 nM | – |

Source: paper PMC5361215 (Scientific Reports, 2017)
